How the values were obtained:
[1] = tested on: KPC-2 producing K. pneumoniae (ATCC BAA-1705); test: Synergistic broth micro-dilution MIC (checkerboard); format: cell-based, Klebsiella pneumoniae; details: for MIC of Cefepime in combination with BLI / MIC of Cefotaxime in combination with BLI / MIC of Ceftazidime in combination with BLI / MIC of Ceftobiprole in combination with BLI / MIC of Imipenem in combination with BLI / MIC of Meropenem in combination with BLI / MIC of Aztreonam in combination with BLI / MIC of Ertapenem in combination with BLI / MIC of Faropenem in combination with BLI: ATCC BAA-1705
[2] = tested on: KPC-3 expressing E. coli (J53 R6206); test: as above; format: cell-based, Escherichia coli
[3] = target: T1, crude KPC-2 enzyme extract (Klebsiella pneumoniae, UniProt Q9F663); test: β-Lactamase inhibitory assay with CENTA substrate; format: biochemical
T1 construct: enzyme extracts from KPC-2 producing and KPC-3 expressing bacterial gram negative strains were used; endogenous in cells; host or cells: KPC-2 producing gram-negative strain
Source text: (§1) The Compound-1 was subjected to β-lactamase inhibitory assay to determine IC50 and to compare that with the comparator BLI agents as described elsewhere (Bebrone et. al., Antimicrob. Agents. Chemother, 2001, 45(6): 1868-1871; Jamieson et. al, Antimicrob. Agents. Chemother, 2003, 47(5): 1652-1657). Briefly, enzyme extracts from KPC-2 producing and KPC-3 expressing bacterial gram negative strains were used to study the β-lactamase inhibitory activity and determination of IC50 using CENTA as the substrate for β-lactamase.

[4] = target: crude KPC-3 enzyme extract (UniProt Q9F663, H272Y, species not given); test: β-Lactamase inhibitory assay with CENTA substrate; format: biochemical; details: also headed KPC2
Source text: as §1

T1 sequence (Q9F663 25-293 limits assumed): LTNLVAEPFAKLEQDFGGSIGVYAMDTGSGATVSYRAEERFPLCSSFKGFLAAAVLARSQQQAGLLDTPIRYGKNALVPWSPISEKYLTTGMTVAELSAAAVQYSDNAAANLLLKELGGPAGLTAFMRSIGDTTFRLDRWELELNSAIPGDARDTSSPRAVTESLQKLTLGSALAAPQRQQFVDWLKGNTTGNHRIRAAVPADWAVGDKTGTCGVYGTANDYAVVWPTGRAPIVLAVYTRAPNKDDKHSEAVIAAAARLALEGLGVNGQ

For `CC1(C)[C@H](C(=O)O)N2C(=O)C[C@H]2S1(=O)=O` [Sulbactam], which “MIC of Cefepime in combination with BLI” value ([1]; BLI at 2 μg/mL) is on record?
Its value is over 64 µg/mL.

And the “MIC of Cefotaxime in combination with BLI” value (“MIC of Cefotaxime” for short) ([1]; BLI at 2 μg/mL)?
The value was over 64 µg/mL.

And the “MIC of Ceftazidime in combination with BLI” value (“MIC of Ceftazidime” for short) ([1]; BLI at 2 μg/mL)?
Its value is over 64 µg/mL.

What about the “MIC of Ceftobiprole in combination with BLI” value (from here on “MIC of Ceftobiprole”) ([1]; BLI at 2 μg/mL) of the same compound?
The value was over 64 µg/mL.

What about the “MIC of Imipenem in combination with BLI” value ([1]; BLI at 2 μg/mL) of the same compound?
The value was 16 to 32 µg/mL.

What about the “MIC of Meropenem in combination with BLI” value ([1]; BLI at 2 μg/mL) of the same compound?
The value was 32 µg/mL.

And the “MIC of Aztreonam in combination with BLI” value ([1]; BLI at 4 μg/mL)?
The value was over 64 µg/mL.

What about the “MIC of Cefepime in combination with BLI” value ([1]; BLI at 4 μg/mL) of the same compound?
The value was at least 64 µg/mL.

And the “MIC of Cefotaxime” value ([1]; BLI at 4 μg/mL)?
The value was over 64 µg/mL.

And the “MIC of Ceftazidime” value ([1]; BLI at 4 μg/mL)?
Its value is over 64 µg/mL.

And the “MIC of Ceftobiprole” value ([1]; BLI at 4 μg/mL)?
The value was over 64 µg/mL.

What about the “MIC of Ertapenem in combination with BLI” value ([1]; BLI at 4 μg/mL) of the same compound?
Its value is over 64 µg/mL.

And the “MIC of Faropenem in combination with BLI” value ([1]; BLI at 4 μg/mL)?
The value was over 64 µg/mL.

What about the “MIC of Imipenem in combination with BLI” value ([1]; BLI at 4 μg/mL) of the same compound?
The value was 16 to 32 µg/mL.

What about the “MIC of Meropenem in combination with BLI” value ([1]; BLI at 4 μg/mL) of the same compound?
Its value is 32 µg/mL.

What about the “MIC of Cefepime in combination with BLI” value ([1]; BLI at 8 μg/mL) of the same compound?
Its value is 64 µg/mL.

And the “MIC of Cefotaxime” value ([1]; BLI at 8 μg/mL)?
The value was 64 µg/mL.

What about the “MIC of Ceftazidime” value ([1]; BLI at 8 μg/mL) of the same compound?
The value was over 64 µg/mL.

And the “MIC of Ceftobiprole” value ([1]; BLI at 8 μg/mL)?
Its value is over 64 µg/mL.

What about the “MIC of Ertapenem in combination with BLI” value ([1]; BLI at 8 μg/mL) of the same compound?
Its value is over 64 µg/mL.

And the “MIC of Faropenem in combination with BLI” value ([1]; BLI at 8 μg/mL)?
The value was over 64 µg/mL.

What about the “MIC of Imipenem in combination with BLI” value ([1]; BLI at 8 μg/mL) of the same compound?
The value was 16 µg/mL.

What about the “MIC of Meropenem in combination with BLI” value ([1]; BLI at 8 μg/mL) of the same compound?
The value was 32 µg/mL.

And the “MIC of Aztreonam in combination with BLI” value ([1]; BLI at 16 μg/mL)?
The value was over 64 µg/mL.

And the “MIC of Cefepime in combination with BLI” value ([1]; BLI at 16 μg/mL)?
The value was 64 µg/mL.

What about the “MIC of Cefotaxime” value ([1]; BLI at 16 μg/mL) of the same compound?
The value was 32 µg/mL.

What about the “MIC of Ceftazidime” value ([1]; BLI at 16 μg/mL) of the same compound?
The value was over 64 µg/mL.

What about the “MIC of Ceftobiprole” value ([1]; BLI at 16 μg/mL) of the same compound?
Its value is over 64 µg/mL.

What about the “MIC of Ertapenem in combination with BLI” value ([1]; BLI at 16 μg/mL) of the same compound?
The value was over 64 µg/mL.

And the “MIC of Faropenem in combination with BLI” value ([1]; BLI at 16 μg/mL)?
The value was over 64 µg/mL.

And the “MIC of Imipenem in combination with BLI” value ([1]; BLI at 16 μg/mL)?
The value was 8 µg/mL.

And the “MIC of Meropenem in combination with BLI” value ([1]; BLI at 16 μg/mL)?
Its value is 32 µg/mL.

What about the “MIC of Aztreonam in combination with BLI” value ([1]; BLI at 64 μg/mL) of the same compound?
Its value is over 64 µg/mL.

And the “MIC of Cefepime in combination with BLI” value ([1]; BLI at 64 μg/mL)?
Its value is 64 µg/mL.

And the “MIC of Cefotaxime” value ([1]; BLI at 64 μg/mL)?
Its value is 32 µg/mL.

What about the “MIC of Ceftazidime” value ([1]; BLI at 64 μg/mL) of the same compound?
Its value is 64 µg/mL.

And the “MIC of Ceftobiprole” value ([1]; BLI at 64 μg/mL)?
Its value is over 64 µg/mL.

And the “MIC of Ertapenem in combination with BLI” value ([1]; BLI at 64 μg/mL)?
The value was 64 µg/mL.

What about the “MIC of Faropenem in combination with BLI” value ([1]; BLI at 64 μg/mL) of the same compound?
Its value is over 64 µg/mL.

What about the “MIC of Imipenem in combination with BLI” value ([1]; BLI at 64 μg/mL) of the same compound?
Its value is 8 µg/mL.

What about the “MIC of Meropenem in combination with BLI” value ([1]; BLI at 64 μg/mL) of the same compound?
The value was 16 µg/mL.

And the MIC ([1]; Klebsiella pneumoniae, ATCCBAA1705, read-out: MIC of BLI alone)?
The MIC was over 64 µg/mL.

And the “MIC of Cefepime in combination with BLI” value ([2]; BLI at 2 μg/mL)?
The value was 16 µg/mL.

And the “MIC of Cefotaxime” value ([2]; BLI at 2 μg/mL)?
The value was over 32 µg/mL.

And the “MIC of Ceftazidime” value ([2]; BLI at 2 μg/mL)?
Its value is 32 µg/mL.

And the “MIC of Ceftobiprole” value ([2]; BLI at 2 μg/mL)?
The value was 32 µg/mL.

And the “MIC of Imipenem in combination with BLI” value ([2]; BLI at 2 μg/mL)?
The value was 4 µg/mL.

And the “MIC of Meropenem in combination with BLI” value ([2]; BLI at 2 μg/mL)?
The value was 2 µg/mL.

And the “MIC of Cefepime in combination with BLI” value ([2]; BLI at 4 μg/mL)?
The value was 16 µg/mL.

And the “MIC of Cefotaxime” value ([2]; BLI at 4 μg/mL)?
The value was 16 µg/mL.

And the “MIC of Ceftazidime” value ([2]; BLI at 4 μg/mL)?
The value was 32 µg/mL.

And the “MIC of Ceftobiprole” value ([2]; BLI at 4 μg/mL)?
The value was 32 µg/mL.

What about the “MIC of Imipenem in combination with BLI” value ([2]; BLI at 4 μg/mL) of the same compound?
Its value is 2 µg/mL.

What about the “MIC of Meropenem in combination with BLI” value ([2]; BLI at 4 μg/mL) of the same compound?
Its value is 1 µg/mL.

What about the “MIC of Cefepime in combination with BLI” value ([2]; BLI at 8 μg/mL) of the same compound?
Its value is 8 µg/mL.

What about the “MIC of Cefotaxime” value ([2]; BLI at 8 μg/mL) of the same compound?
Its value is 8 µg/mL.

What about the “MIC of Ceftazidime” value ([2]; BLI at 8 μg/mL) of the same compound?
Its value is 32 µg/mL.

And the “MIC of Ceftobiprole” value ([2]; BLI at 8 μg/mL)?
Its value is 16 µg/mL.

And the “MIC of Imipenem in combination with BLI” value ([2]; BLI at 8 μg/mL)?
Its value is 2 µg/mL.

What about the “MIC of Meropenem in combination with BLI” value ([2]; BLI at 8 μg/mL) of the same compound?
The value was 1 µg/mL.

What about the MIC ([2]; Escherichia coli, read-out: MIC of BLI alone, BLI alone) of the same compound?
The MIC was over 8 µg/mL.

And the IC50 [3]?
The IC50 was 1400 µM.

And the IC50 [4]?
Its IC50 is 235 µM.

Reference: patent US10201532B2, “Compounds and their use” (ALLECRA THERAPEUTICS GMBH, priority 2010, dated 2019)
